Assay [1] addresses mA2a (Mus musculus (Mouse), UniProt Q60613). Kind of assay: cAMP inhibition assay in mA2a/CHO cells. As to conditions: 10 μM adenosine, read-out: cAMP & FLIPR IC50 (nM) mA2a. It is filed as cell-based. The method, then: (§1) hA2a/CHO, hA2b/CHO and mA2a/CHO(Genscript) were plated at 5×10^3 cells/well into 384-well polystyrene plates at the day of experiment. Compounds were pre-incubated with cells for 30 min at 37° C., 5% CO2. Then 10 μM adenosine was added to the cells and incubated for 30 min at 37° C., 5% CO2. Detection reagent (CISBIO) was added and the plates were incubated for 60 min at room temperature. The signal was captured by Envision.

Assay [2] addresses hA2a (Homo sapiens (Human), UniProt P29274). Nature of the assay: cAMP inhibition assay in hA2a/CHO cells. The conditions noted are these: 10 μM adenosine, read-out: cAMP & FLIPR IC50 (nM) hA2a. Format: cell-based. How it is done: as §1
FLIPR™ and cAMP inhibition activities of exemplary compounds in different adenosine receptor over-expressing cell lines are shown in Table 4 below.

The text below walks through data of patent publication US11629147B2, “Triazolo-pyrimidine compounds and uses thereof” (Dizal (Jiangsu) Pharmaceutical Co., Ltd., priority 2019, dated 2023).

Chain of hA2a (P29274 whole entry): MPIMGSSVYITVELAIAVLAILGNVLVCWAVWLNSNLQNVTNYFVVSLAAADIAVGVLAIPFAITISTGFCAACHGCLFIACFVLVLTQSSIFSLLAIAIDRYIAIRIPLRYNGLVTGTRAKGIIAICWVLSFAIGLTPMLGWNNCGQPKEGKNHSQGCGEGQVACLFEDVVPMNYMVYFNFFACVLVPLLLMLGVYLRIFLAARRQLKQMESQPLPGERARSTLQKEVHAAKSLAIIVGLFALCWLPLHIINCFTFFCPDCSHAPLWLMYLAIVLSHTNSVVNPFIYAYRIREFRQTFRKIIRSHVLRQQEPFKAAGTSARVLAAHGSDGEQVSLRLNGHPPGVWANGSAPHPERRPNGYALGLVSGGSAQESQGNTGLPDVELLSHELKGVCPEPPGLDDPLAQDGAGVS
Chain of mA2a (Q60613 whole entry): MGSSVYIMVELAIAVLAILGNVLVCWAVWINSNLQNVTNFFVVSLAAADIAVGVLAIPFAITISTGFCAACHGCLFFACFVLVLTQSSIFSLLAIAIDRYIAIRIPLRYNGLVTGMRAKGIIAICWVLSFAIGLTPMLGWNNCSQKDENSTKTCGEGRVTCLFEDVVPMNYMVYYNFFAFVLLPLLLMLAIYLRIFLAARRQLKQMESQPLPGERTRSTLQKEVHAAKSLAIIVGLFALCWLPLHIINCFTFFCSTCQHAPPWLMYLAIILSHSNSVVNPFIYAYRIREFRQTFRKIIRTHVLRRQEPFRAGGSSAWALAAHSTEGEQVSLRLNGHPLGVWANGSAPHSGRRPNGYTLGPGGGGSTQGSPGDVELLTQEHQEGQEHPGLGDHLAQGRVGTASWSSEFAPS

As for `Cc1cnc2ccc(-c3c(-c4ccc(F)cc4)nc(N)n4nc(CC5CCOC5)nc34)cn12` (single isomer, unassigned; isomer 2) [Example 105-2, 7-(4-fluorophenyl)-8-(3-methylimidazo[1,2-a]pyridin-6-yl)-2-((tetrahydrofuran-3-yl)methyl)-[1,2,4]triazolo[1,5-c]pyrimidin-5-amine (isomer 2)], the IC50 in assay [1] is 1 nM; in assay [2] it was 0.1 nM.

The IC50 is the point on the concentration scale where inhibition reaches its midpoint.
